{"source": "patent US20130065866A1", "about": "“DENTINAL DRUG DELIVERY COMPOSITION AND SCREENING METHOD” (UNIVERSITY OF MEDICINE AND DENTISTRY OF NEW JERSEY, priority 2009, published 2013)", "format_in_all_cases": "cell-based, murine", "key": {"[1]": {"test_system": "LPS-evoked NO production in RAW cells", "assay": "Direct effect on NO production in RAW cells", "settings": "for reduction of spontaneous NO production: absence of LPS stimulation; for inhibition of LPS-evoked NO production: direct treatment", "from_the_text": "(§1) After the one or more time intervals (e.g., one or more minutes, hours, or days), the diffusate is collected and tested for activity against an isolated dental pulp cell or isolated population of dental pulp cells. An isolated pulpal cell or population of dental pulp cells refers to cells that are removed from their native environment (i.e., the dental pulp). The isolated cells can be cultured primary cells or cultured cell line and include, but are not limited to fibroblasts, odontoblasts, histiocytes, macrophage, granulocytes, mast cells or plasma cells. Exemplary cell lines include, but are not limited to the murine macrophage cell line, RAW 264.7; immortalized mouse odontoblast cell line, MDPC-23; and the murine fibroblast cell line, 3T3.\n(§2) As indicated, in some embodiments it is determined whether the diffusate contains a sufficient amount of test agent to inhibit or decrease the expression or activity of at least one inflammatory mediator of the dental pulp cell. In accordance with this embodiment, the isolated pulpal cell or population of dental pulp cells can be challenged with an inflammation-provoking stimulus (e.g., Lipopolysaccharide (LPS), N-formyl-methionyl-leucyl-phenylalanine, or phorbol myristate acetate) either before or after being contacted with the diffusate, so that the effect of the drug diffusing through the dentin barrier on inflammatory mediator production is assessed.\n(§3) Prostaglandins such as PGE2 and nitric oxide (NO) are inflammatory mediators that are generated in injured tissue and influence vascular tissues, nociceptive nerve endings and immune cells. For example, exposure of immune and other cells to bacterial toxins such as LPS evokes production of PGE2 and NO. Other known mediators of inflammation include, but are not limited to, bradykinin, histamine, leukotrienes (Bd, Cd, Dd, Ed) IL-8, and neutrophil and macrophage lysosomal enzymes. The effect of test agents on the expression or activity of one or more of the above-referenced inflammatory mediators can be determined by conventional methods. For example, mRNA expression can be determined by dot blot, northern blot, or reverse transcriptase (RT)-PCR; protein expression can be determined by western blot or ELISA analysis; and NO production can be determined using a Griess reaction assay (e.g., EMSNOTOT kit) or ozone-based chemiluminescence assay.\nThe direct effect of drugs and lipids on inflammatory mediator production in RAW cells was determined. […] Measurable amounts of NO were produced in the absence of LPS stimulation (˜15 μM)."}, "[2]": {"test_system": "LPS-evoked PGE2 production in RAW cells", "assay": "Direct effect on LPS-evoked PGE2 production in RAW cells", "settings": "direct treatment", "from_the_text": "as §1, §2\nas §3, with “For example, exposure of immune and other cells to bacterial toxins such as LPS evokes production of PGE2 and NO. Other known mediators of inflammation include, but are not limited to, bradykinin, histamine, leukotrienes (Bd, Cd, Dd, Ed) IL-8, and neutrophil and macrophage lysosomal enzymes.” left out, “assay. […]” for “assay.”"}, "RAW cells": {"test_system": "RAW cells", "assay": "Toxicity to cells in the RAW cell study", "settings": "levels used in this study", "protocol": "The direct effect of drugs and lipids on inflammatory mediator production in RAW cells was determined."}, "[3]": {"test_system": "LPS-evoked NO production in RAW cells", "assay": "Transdentinal diffusion; diffusate applied to LPS-stimulated RAW cells, NO", "settings": "24 hours of diffusion through dentin; diffusate on RAW cells stimulated with LPS", "protocol": "(§4) This screening method of the invention includes the steps of contacting a coronal surface of an isolated dentin sample with a test agent, incubating the test agent and dentin sample so that diffusate is formed on the pulpal side of the dentin sample, contacting an isolated dental pulp cell with the diffusate, and determining whether the diffusate contains a sufficient amount of test agent to act on a cell of the dental pulp. In one embodiment, it is determined whether the diffusate contains a sufficient amount of test agent to inhibit or decrease the expression or activity of at least one inflammatory mediator of the dental pulp cell (e.g., nociceptive nerve endings, blood vesicle cells or inflammatory cells).\n(§5) The dentins sample can be isolated by conventional methods and used in combination with a commercially available two-chamber diffusion cell, wherein the partition separating the two chambers holds the dentin sample (e.g., a dentin disk) in an orientation so that the dentin tubules provide the only connection between the two chambers. See, e.g., Hanks, et al. (1993) J. Dent. Res. 72:931-938; and Puapichartdumrong, et al. (2003) Internatl. Endodont. J. 36:674-81. […]"}, "[4]": {"test_system": "PGE2 production in LPS-stimulated RAW cells", "assay": "Transdentinal diffusion; diffusate applied to LPS-stimulated RAW cells, PGE2", "settings": "24 hours of diffusion through dentin; diffusate on RAW cells stimulated with LPS", "protocol": "as §4, §5"}}, "data": [{"compound": "CC/C=C\\C/C=C\\C/C=C\\C/C=C\\C/C=C\\C/C=C\\CCC(=O)O", "note": "[DHA, docosahexaenoic]", "values": [{"measurement": "reduction of spontaneous NO production", "setting": "[1]", "result": "small (not statistically significant) reduction"}, {"measurement": "inhibition of LPS-evoked NO production", "setting": "[1]", "result": "inhibited NO production but to a lesser extent than aspirin"}]}, {"compound": "CC(=O)Oc1ccccc1C(=O)O", "note": "[aspirin, acetylsalicyclic acid]", "values": [{"measurement": "reduction of LPS-evoked NO production", "setting": "[1]; 0.5 mM and lower (0.05, 0.005, 0.0005 mM)", "result": "did not significantly reduce LPS-evoked NO production"}, {"measurement": "reduction of LPS-evoked NO production", "setting": "[1]; 5 mM", "result": "significantly reduced NO production"}, {"measurement": "reduction of spontaneous NO production", "setting": "[1]", "result": "small (not statistically significant) reduction"}, {"measurement": "inhibition of LPS-evoked NO production", "setting": "[1]", "result": "effectively inhibited LPS-evoked NO production"}, {"measurement": "inhibition of LPS-evoked PGE2 production", "setting": "[2]; compared to oleic acid", "result": "effective inhibitors of LPS-evoked PGE2 production"}, {"measurement": "toxicity to cells", "setting": "RAW cells", "result": "non-toxic to cells"}, {"measurement": "LPS-evoked NO production after diffusate application", "setting": "[3]", "result": "depressed"}, {"measurement": "PGE2 production after diffusate application", "setting": "[4]", "result": "significantly reduced"}]}, {"compound": "CC(C)Cc1ccc(C(C)C(=O)O)cc1", "note": "(centres unmarked) [ibuprofen]", "values": [{"measurement": "effect on LPS-evoked NO production", "setting": "[1]; 50 μM", "result": "no effect on LPS-evoked NO production"}, {"measurement": "inhibition of LPS-evoked NO production", "setting": "[1]", "result": "did suppress NO production"}, {"measurement": "inhibition of LPS-evoked PGE2 production", "setting": "[2]; 50 μM", "result": "inhibited LPS-evoked PGE2 production"}, {"measurement": "inhibition of LPS-evoked PGE2 production", "setting": "[2]; compared to oleic acid", "result": "effective inhibitors of LPS-evoked PGE2 production"}, {"measurement": "LPS-evoked NO production after diffusate application", "setting": "[3]", "result": "did not attenuate LPS-stimulated NO production"}, {"measurement": "PGE2 production after diffusate application", "setting": "[4]", "result": "significantly reduced"}]}, {"compound": "CCCCCCCC/C=C\\CCCCCCCC(=O)O", "note": "[oleic acid]", "values": [{"measurement": "inhibition of LPS-evoked NO production", "setting": "[1]", "result": "not shared"}]}]}
